Molecular target: tyrosinase
Assay: enzyme assay with L-tyrosine substrate, […] nm
Assay type: biochemical

Tyrosinase Inhibition IC50: 179.5 µg/mL
SMILES: COc1ccc2c(c1)[nH]c1cc(OC)c(C(=O)O)cc12 [L3, Clausine K]
